Laboratory results published in paper PMC8383802 (ACS chemical neuroscience, 2020).

Legend:
[1] = tested on: methamphetamine (Meth)-induced hyper-locomotor activity; details: cited from earlier work
[2] = Brain and blood concentration of KVA-D-88 in mice; assay type: in vivo
PDE4D = PDE4D (Homo sapiens, UniProt Q08499); test: IC50 determination on PDE4 isoforms in vitro; assay type: binding; details: read-out: IC50 on PDE4D
PDE4B = PDE4B (Homo sapiens, UniProt Q07343); test: IC50 determination on PDE4 isoforms in vitro; assay type: binding; details: read-out: IC50 on PDE4B
[3] = tested on: cocaine self-administered mice; test: Cocaine self-administration in mice
WT C57/BL6 mice = assay type: in vivo
[4] = Pharmacokinetic study of KVA-D-88 in mice; assay type: in vivo
alcohol intake = details: cited from earlier work; for alcohol intake: mice, without altering total fluid intake, alcohol-induced sedation or alcohol metabolism
[5] = tested on: Meth self-administered rats; details: cited from earlier work
cocaine reward = details: cited from earlier work
[6] = tested on: morphine-induced hyper-locomotor activity; details: cited from earlier work
[7] = tested on: alcohol self-administration; details: cited from earlier work
[8] = tested on: heroin self-administration; details: cited from earlier work
[9] = FR1 schedule, 2 h, 5 and 2.5 mg/kg i.p. 30 min before, P < 0.05
[10] = FR3 schedule, 2 h session, 5 mg/kg, P < 0.05

PDE4D, sequence (Q08499 whole entry, canonical isoform): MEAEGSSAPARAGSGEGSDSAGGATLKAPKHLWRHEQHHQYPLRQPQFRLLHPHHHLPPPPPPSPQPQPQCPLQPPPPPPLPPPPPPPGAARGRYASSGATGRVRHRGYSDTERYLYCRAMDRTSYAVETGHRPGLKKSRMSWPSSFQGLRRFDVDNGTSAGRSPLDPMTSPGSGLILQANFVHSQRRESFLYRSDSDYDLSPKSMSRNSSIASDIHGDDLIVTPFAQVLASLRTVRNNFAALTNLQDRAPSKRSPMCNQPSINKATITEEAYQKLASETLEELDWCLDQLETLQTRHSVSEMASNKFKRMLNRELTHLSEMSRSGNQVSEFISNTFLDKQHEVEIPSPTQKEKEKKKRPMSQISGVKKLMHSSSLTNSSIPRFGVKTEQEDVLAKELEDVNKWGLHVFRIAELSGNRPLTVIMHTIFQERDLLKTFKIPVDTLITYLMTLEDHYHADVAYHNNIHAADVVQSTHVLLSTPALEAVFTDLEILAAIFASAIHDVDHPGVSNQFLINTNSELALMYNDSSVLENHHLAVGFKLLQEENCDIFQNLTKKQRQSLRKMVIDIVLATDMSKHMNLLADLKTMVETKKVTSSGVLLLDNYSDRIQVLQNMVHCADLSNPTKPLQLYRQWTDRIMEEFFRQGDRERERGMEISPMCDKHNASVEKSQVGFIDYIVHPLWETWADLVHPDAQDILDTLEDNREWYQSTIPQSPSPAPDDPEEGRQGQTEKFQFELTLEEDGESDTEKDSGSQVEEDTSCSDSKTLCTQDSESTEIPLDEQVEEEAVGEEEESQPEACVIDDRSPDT
PDE4B, sequence (Q07343 whole entry, canonical isoform): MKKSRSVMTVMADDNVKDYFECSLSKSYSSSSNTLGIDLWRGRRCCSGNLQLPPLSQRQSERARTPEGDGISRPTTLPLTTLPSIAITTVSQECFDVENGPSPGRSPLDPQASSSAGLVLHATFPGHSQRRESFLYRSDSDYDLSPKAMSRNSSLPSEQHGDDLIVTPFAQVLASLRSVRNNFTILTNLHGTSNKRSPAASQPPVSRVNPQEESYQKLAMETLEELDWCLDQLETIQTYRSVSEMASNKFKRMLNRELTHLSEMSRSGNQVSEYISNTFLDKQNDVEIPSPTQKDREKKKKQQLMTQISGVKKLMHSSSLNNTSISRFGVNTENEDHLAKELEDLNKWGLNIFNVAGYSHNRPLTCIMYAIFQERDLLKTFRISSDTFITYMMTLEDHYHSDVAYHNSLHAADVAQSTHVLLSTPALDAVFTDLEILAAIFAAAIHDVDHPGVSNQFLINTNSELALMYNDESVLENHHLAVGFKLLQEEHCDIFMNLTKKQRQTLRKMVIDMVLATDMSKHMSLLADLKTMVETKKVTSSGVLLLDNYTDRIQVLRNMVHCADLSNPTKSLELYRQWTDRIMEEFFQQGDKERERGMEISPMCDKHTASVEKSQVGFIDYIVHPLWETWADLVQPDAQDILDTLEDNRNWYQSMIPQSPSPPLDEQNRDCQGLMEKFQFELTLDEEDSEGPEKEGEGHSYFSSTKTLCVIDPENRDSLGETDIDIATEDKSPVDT

## CC(N)C(=O)c1c(C(C)C)nn2ccccc12 (stereo not shown) [AV1013]
[1]
  Meth-induced hyper-locomotor activity and sensitization: reduced

## O=C(c1cc2cccnc2n1-c1ccc(Cl)c(Cl)c1)N1CC(F)(F)C1 [KVA-D-88]
[2]; i.p. 10 mg/kg, 30 min later
  average concentration in the blood: 3899.2 ng/mL
  concentration ratio of brain: blood (Kp): approximately 0.6
[2]; i.p. 10 mg/kg, 30 min later, whole brain homogenates
  average concentration in the brain: 2347.7 ng/g
[2]; i.v. dosing as printed in the discussion
  concentration ratio (brain vs. plasma): 0.6
[2]; p.o. dosing (10 mg/kg)
  concentration ratio (brain vs. plasma): 1.2
PDE4D
  IC50: 0.88 µM
PDE4B
  IC50: 0.14 µM
[3]; FR1 schedule, 5.0 mg/kg, P < 0.05
  rate of cocaine self-administration: strikingly reduced
[3]; [9]
  number of active nose-pokes: significantly decreased
  number of cocaine infusions: significantly decreased
[3]; [10]
  numbers of active nose-poke: significantly decreased
  numbers of cocaine infusions: significantly decreased
[3]; PR schedule, 3 h session, 5 mg/kg, P < 0.05
  break point: significantly decreased the numbers of break point
[3]; cocaine self-intake, comparison of effective doses
  fold stronger than apremilast on cocaine inhibition: ~10 fold
[3]; dose 0.5 mg/kg
  effect on cocaine self-intake (active nose poke), dose-response: no inhibitory effect
[3]; dose 1.0 mg/kg
  effect on cocaine self-intake (active nose poke), dose-response: no inhibitory effect
[3]; dose 2 mg/kg
  effect on cocaine self-intake (active nose poke), dose-response: showed the inhibitory effects but did not reached the significance
[3]; dose 4 mg/kg, P < 0.05
  effect on cocaine self-intake (active nose poke), dose-response: significant effects
WT C57/BL6 mice; female mice, both testing doses (5 or 10 mg/kg i.p.), P < 0.05
  effect on cocaine-mediated hyper-locomotion: significantly blocked cocaine-mediated hyper-locomotion
WT C57/BL6 mice; mice, KVA-D-88 without cocaine
  effect on locomotor activity at basal levels: minimal effects
WT C57/BL6 mice; mice, daily pre-administration before cocaine for 7 consecutive days
  effect on cocaine-mediated locomotor sensitization: strikingly blocked cocaine-mediated locomotor sensitization
[4]; i.v. injection 1 mg/kg
  half-life (t1/2): 6.1 h
  mean residence time (MRT): 5.7 h
[4]; i.v. injection 1 mg/kg, plasma
  AUC from time zero to infinity (AUC∞): 1387.9 ng/mL
  AUC from time zero to the last measurable concentration (AUClast): 1382.9 ng/mL
  maximum plasma concentration (Cmax): 898.2 ng/mL
[4]; oral gavage 10 mg/kg
  AUC∞: 10825.9 ng/mL
  Cmax in the blood: 2150.5 ng/mL
  half-life (t1/2): 7.16 h
  mean residence time (MRT): 9 h
  time to reach maximum concentration in the blood (Tmax): 0.25 h
[4]; through either i.v. injection or p.o. approach
  half-life: 6 to 7 h

## CCCCOc1cc(CC2CNC(=O)N2)ccc1OC (stereo not shown) [Ro 20-1724]
Alcohol intake
  alcohol intake: reduced alcohol intake

## CCOc1cc([C@@H](CS(C)(=O)=O)N2C(=O)c3cccc(NC(C)=O)c3C2=O)ccc1OC [apremilast, reference compound]
Alcohol intake
  reward-related behavior induced by alcohol: decreasing the reward-related behavior induced by alcohol
[3]; dose 5 mg/kg
  effect on numbers of cocaine self-intake: did not decrease
[3]; dose 20 mg/kg
  effect on numbers of cocaine self-intake: significant its inhibitory effects

## CC(C)C(=O)c1c(C(C)C)nn2ccccc12 [ibudilast]
[1]
  Meth-induced hyper-locomotor activity and sensitization: reduced
[5]; Meth self-administered rats
  drug seeking and intake behaviors: decreased drug seeking and intake behaviors
[5]
  Meth-mediated seeking and consumption behaviors: effective in attenuating

## COc1ccc(C2CNC(=O)C2)cc1OC1CCCC1 (stereo not shown) [rolipram]
Alcohol intake
  alcohol intake: reduced alcohol intake
Cocaine reward; mice
  cocaine-induced locomotor sensitization and conditional place preference: attenuated
Cocaine reward; open field test, CPP and self-administration
  cocaine reward, incentive saliency and seeking behavior: reduce cocaine reward, incentive saliency and seeking behavior
[5]
  Meth-mediated seeking and consumption behaviors: effective in attenuating
[6]
  morphine-induced hyper-locomotor activity and CPP: reduced
[7]
  2-bottle choice alcohol consumption and preference: decreased
  alcohol self-administration: dose-dependently reduced
[8]; fixed ratio 1 (FR1)
  heroin self-administration: did not significantly inhibit
[8]; progressive ratio (PR) paradigm
  rewarding effects of heroin: decreased the rewarding effects
